# Test results from patent US20240092802A1, “MU-OPIOID RECEPTOR AGONISTS AND USES THEREFOR” (Kures, Inc., priority 2020, published 2024).
# Counter-ions that a name gives are not always drawn.
# Target: Human MOR (Homo sapiens (Human), UniProt P35372)
# Experiment: BRET G protein activation assay, human MOR in transfected HEK-293T cells
# Format: cell-based
# Conditions: not given
# Description: Transfection. Human or mouse MOR cDNA was transfected alongside GαoB with RLuc8 inserted at position 91 (GαoB-RLuc8), Gβ1 (β1), and Gγ2 fused to the full-length mVenus at its N terminus (mVenus γ2) into HEK-293T cells (5×10^6 cells/plate) in 10-cm dishes using PEI (Polysciences Inc.; Warrington, PA) in a 1:1 ratio diluted in Opti-MEM (Life Technologies Corp.; Grand Island, NY) to assay for G protein activation as described previously (Rives, M.-L. et al. J. Biol. Chem. 2012, 287, 27050-4; Negri, A.; Rives, M.-L.; Caspers, M. J. et al. J. Chem. Inf. Model. 2013, 53, 521-526). Cells were maintained in the Dulbecco's Modified Eagle Medium (high glucose #11965; Life Technologies) supplemented with 10% FBS (Premium Select, Atlanta Biologicals; Atlanta, GA) and 100 U/mL penicillin and 100 μg/mL streptomycin (#15140, Life Technologies). After 24 hours the media was changed, and the experiment was performed 24 hours later (48 hours after transfection).
# BRET. Transfected cells were dissociated and resuspended in phosphate-buffered saline (PBS). Approximately 200,000 cells/well were added to a black-framed, white well 96-well plate (#60050; Perkin Elmer; Waltham, MA). The microplate was centrifuged and the cells were resuspended in PBS. Then 5 μM of the luciferase substrate coelenterazine H was added to each well for 5 minutes. Following coelenterazine H addition, ligands were added and the BRET signal was measured at 5 minutes on a PHERAstar FS plate reader. Quantification of the BRET signal required calculating the ratio of the light emitted by the energy acceptor, mVenus (510-540 nm), over the light emitted by the energy donor, RLuc8 (485 nm). […] Dose response curves were fit using three-parameter logistics equation in GraphPad Prism 6.
# Human MOR, sequence (P35372 whole entry): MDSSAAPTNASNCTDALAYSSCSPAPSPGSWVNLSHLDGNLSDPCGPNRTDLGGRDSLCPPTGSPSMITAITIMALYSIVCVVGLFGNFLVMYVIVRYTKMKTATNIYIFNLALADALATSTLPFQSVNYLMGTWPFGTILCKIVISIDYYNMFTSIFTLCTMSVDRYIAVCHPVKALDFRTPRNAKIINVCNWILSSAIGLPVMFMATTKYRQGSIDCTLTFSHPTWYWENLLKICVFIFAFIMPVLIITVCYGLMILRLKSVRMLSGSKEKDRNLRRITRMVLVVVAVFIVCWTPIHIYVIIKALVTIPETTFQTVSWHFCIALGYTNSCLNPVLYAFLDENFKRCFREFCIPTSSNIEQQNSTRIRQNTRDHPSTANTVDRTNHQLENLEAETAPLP
row,SMILES,EC50 [µM]
1,"CN1c2ccccc2C(NCCCCCCC(=O)O)c2ccc(I)cc2S1(=O)=O (stereo not drawn) [compound 84, 7-((3-Iodo-6-methyl-5,5-dioxido-6,11-dihydrodibenzo [c,f][1,2]thiazepin-11-yl)amino)heptanoic acid hydrochloride salt]",0.04

# Same assay, conditions: BRET G protein activation, HEK-293T; mean ± SEM; read-out: EC50 Human MOR
row,SMILES,EC50 [µM]
1,"CCOC(=O)CCCCCCNC1c2ccc(Cl)cc2S(=O)(=O)N(C)c2ccsc21 (stereo not drawn) [compound 79, Ethyl 7-((7-chloro-4-methyl-5,5-dioxido-4, 10-dihydrobenzo[f]thieno[3,2-c][1,2]thiazepin-10-yl)amino)heptanoate]",< 10
2,"CN1c2ccccc2C(NCCCCCCC(=O)NCCO)c2ccc(Cl)cc2S1(=O)=O (stereo not drawn) [compound 57, 7-((3-Chloro-6-methyl-5,5-dioxido-6,11-dihydrodibenzo [c,f][1,2]thiazepin-11-yl)amino)-N-(2-hydroxyethyl) heptanamide]",< 10
3,"CN1CCCC1CCNC1c2ccccc2N(C)S(=O)(=O)c2cc(Cl)ccc21 (stereo not drawn) [compound 47, 3-chloro-6-methyl-11-((2-(1-methylpyrrolidin-2-yl)ethyl)amino)-6,11-dihydrodibenzo[c,f][1,2]thiazepine 5,5-dioxide]",< 20
4,"CCOC(CCCNC1c2ccccc2N(C)S(=O)(=O)c2cc(Cl)ccc21)OCC (stereo not drawn) [compound 24, 3-Chloro-11-((4,4-diethoxybutyl)amino)-6-methyl-6,11-dihydrodibenzo[c,f][1,2]thiazepine 5,5-dioxide]",< 10
5,"COCCCNC1c2ccccc2S(=O)(=O)N(C)c2ccsc21 (stereo not drawn) [compound 7, 10-((3-Methoxypropyl)amino)-4-methyl-4,10-dihydrobenzo[f]thieno[3,2-c][1,2]thiazepine 5,5-dioxide]",< 10
6,"CC(C)OCCCNC1c2ccccc2N(C)S(=O)(=O)c2cc(Cl)ccc21 (stereo not drawn) [compound 35, 3-Chloro-11-((3-isopropoxypropyl)amino)-6-methyl-6,11-dihydrodibenzo [c,f][1,2]thiazepine 5,5-dioxide]",< 10
7,"CCSc1ccc2c(c1)S(=O)(=O)N(C)c1ccccc1C2NCCCOC (stereo not drawn) [compound 64, 3-(Ethylthio)-11-((3-methoxypropyl)amino)-6-methyl-6,11-dihydrodibenzo[c,f][1,2]thiazepine 5,5-dioxide]",< 10
8,"COCCCNC1c2ccc(Cl)cc2N(C)S(=O)(=O)c2ccccc21 (stereo not drawn) [compound 69, 8-Chloro-11-((3-methoxypropyl)amino)-6-methyl-6,11-dihydrodibenzo [c,f][1,2]thiazepine 5,5-dioxide]",< 20
9,"CC(=O)OCCCCCCNC1c2ccccc2N(C)S(=O)(=O)c2cc(Cl)ccc21 (stereo not drawn) [compound 13, 6-((3-Chloro-6-methyl-5,5-dioxido-6,11-dihydrodibenzo[c,f][1,2]thiazepin-11-yl)amino)hexyl acetate]",< 10
10,"CN1c2ccccc2C(NCCCC2OCCCO2)c2ccc(Cl)cc2S1(=O)=O (stereo not drawn) [compound 31, 11-((3-(1,3-Dioxan-2-yl)propyl)amino)-3-chloro-6-methyl-6,11-dihydrodibenzo[c,f][1,2]thiazepine 5,5-dioxide]",< 10
11,"COCCCNC1c2ccccc2S(=O)(=O)N(C)c2c(Br)csc21 (stereo not drawn) [compound 43, 3-Bromo-10-((3-methoxypropyl)amino)-4-methyl-4, 10-dihydrobenzo[f]thieno[3,2-c][1,2]thiazepine 5,5-dioxide]",< 20
12,"CN1c2ccccc2C(NCC2CCOC2)c2ccc(Cl)cc2S1(=O)=O (stereo not drawn) [compound 46, 3-chloro-6-methyl-11-(((tetrahydrofuran-3-yl)methyl)amino)-6,11-dihydrodibenzo[c,f][1,2]thiazepine 5,5-dioxide]",< 10
13,"COCCCNC1c2ccccc2N(C)S(=O)(=O)c2ccccc21 (stereo not drawn) [compound 10, 11-((3-Methoxypropyl)amino)-6-methyl-6,11-dihydrodibenzo[c,f][1,2]thiazepine 5,5-dioxide]",< 10
14,"COCCNC1c2ccccc2N(C)S(=O)(=O)c2cc(Cl)ccc21 (stereo not drawn) [compound 42, 3-Chloro-11-((2-methoxyethyl)amino)-6-methyl-6,11-dihydrodibenzo [c,f][1,2]thiazepine 5,5-dioxide]",< 10
15,"CCCCCCCNC1c2ccccc2N(C)S(=O)(=O)c2cc(Cl)ccc21 (stereo not drawn) [compound 26, 3-Chloro-11-(heptylamino)-6-methyl-6,11-dihydrodibenzo [c,f][1,2]thiazepine 5,5-dioxide]",< 10
16,"COCCCNC1c2ccccc2N(C)S(=O)(=O)c2cc(-c3ccccc3)ccc21 (stereo not drawn) [compound 56, 11-((3-Methoxypropyl)amino)-6-methyl-3-phenyl-6,11-dihydrodibenzo[c,f][1,2]thiazepine 5,5-dioxide]",< 10

row,SMILES,EC50 [µM]
1,"COCCCNC1c2ccccc2S(=O)(=O)N(C)c2c(OC)cccc21 (stereo not drawn) [compound 50, 7-Methoxy-11-((3-methoxypropyl)amino)-6-methyl-6,11-dihydrodibenzo [c,f][1,2]thiazepine 5,5-dioxide]",< 20
2,"CCOCCCNC1c2ccc(Br)cc2S(=O)(=O)N(C)c2ccsc21 (stereo not drawn) [compound 73, 7-Bromo-10-((3-ethoxypropyl)amino)-4-methyl-4, 10-dihydrobenzo[f]thieno[3,2-c][1,2]thiazepine 5,5-dioxide]",< 10
3,"CSCCCNC1c2ccccc2N(C)S(=O)(=O)c2cc(Cl)ccc21 (stereo not drawn) [compound 33, 3-Chloro-6-methyl-11-((3-(methylthio)propyl)amino)-6,11-dihydrodibenzo[c,f][1,2]thiazepine 5,5-dioxide]",< 10
4,"COCCCNC1c2ccc(Br)cc2S(=O)(=O)N(C)c2ccsc21 (stereo not drawn) [compound 72, 7-Bromo-10-((3-methoxypropyl)amino)-4-methyl-4, 10-dihydrobenzo[f]thieno[3,2-c][1,2]thiazepine 5,5-dioxide]",< 10
5,"COCCCNC1c2ccccc2N(C)S(=O)(=O)c2ccc(Cl)cc21 (stereo not drawn) [compound 60, 2-Chloro-11-((3-methoxypropyl)amino)-6-methyl-6,11-dihydrodibenzo [c,f][1,2]thiazepine 5,5-dioxide]",< 20
6,"CCN1c2ccccc2C(NCCCOC)c2ccccc2S1(=O)=O (stereo not drawn) [compound 65, 6-Ethyl-11-((3-methoxypropyl)amino)-6,11-dihydrodibenzo[c,f][1,2]thiazepine 5,5-dioxide]",> 20
7,"COCCCNC1c2ccccc2N(C)S(=O)(=O)c2cc([S+](C)[O-])ccc21 (stereo not drawn) [compound 55, 11-((3-Methoxypropyl)amino)-6-methyl-3-(methylsulfinyl)-6,11-dihydrodibenzo[c,f][1,2]thiazepine 5,5-dioxide]",< 20
8,"CCOC(=O)CCCCCCNC1c2ccccc2S(=O)(=O)N(C)c2ccsc21 (stereo not drawn) [compound 6, Ethyl 7-((4-methyl-5,5-dioxido-4,10-dihydrobenzo[f]thieno[3,2-c][1,2]thiazepin-10-yl)amino)heptanoate]",< 10
9,"CN1c2ccccc2C(NCCCCCCC2=NCCO2)c2ccc(Cl)cc2S1(=O)=O (stereo not drawn) [compound 58, 3-Chloro-11-((6-(4,5-dihydrooxazol-2-yl)hexyl)amino)-6-methyl-6,11-dihydrodibenzo[c,f][1,2]thiazepine 5,5-dioxide]",< 10
10,"COCCCNC1c2ccc(Cl)cc2S(=O)(=O)N(C)c2ccsc21 (stereo not drawn) [compound 77, 7-Chloro-10-((3-methoxypropyl)amino)-4-methyl-4, 10-dihydrobenzo[f]thieno[3,2-c][1,2]thiazepine 5,5-dioxide]",< 10
11,"COC(C)CCNC1c2ccccc2N(C)S(=O)(=O)c2cc(Cl)ccc21 (stereo not drawn) [compound 67, 3-Chloro-11-((3-methoxybutyl)amino)-6-methyl-6,11-dihydrodibenzo [c,f][1,2]thiazepine 5,5-dioxide]",< 10
12,"COCCCNC1c2cc(Br)ccc2N(C)S(=O)(=O)c2cc(Cl)ccc21 (stereo not drawn) [compound 11, 9-Bromo-3-chloro-11-((3-methoxypropyl)amino)-6-methyl-6,11-dihydrodibenzo[c,f][1,2]thiazepine 5,5-dioxide]",< 10
13,"COCCCNC1c2ccccc2N(C)S(=O)(=O)c2cc(C)ccc21 (stereo not drawn) [compound 15, 11-((3-Methoxypropyl)amino)-3,6-dimethyl-6,11-dihydrodibenzo[c,f][1,2]thiazepine 5,5-dioxide]",< 10
14,"COCCCNC1c2ccccc2N(C)S(=O)(=O)c2cc(OC(C)=O)ccc21 (stereo not drawn) [compound 59, 11-((3-Methoxypropyl)amino)-6-methyl-5,5-dioxido-6,11-dihydrodibenzo[c,f][1,2]thiazepin-3-yl acetate]",< 10
15,"COCCCNC1c2ccccc2N(C)S(=O)(=O)c2cc(OC)ccc21 (stereo not drawn) [compound 27, 3-Methoxy-11-((3-methoxypropyl)amino)-6-methyl-6,11-dihydrodibenzo [c,f][1,2]thiazepine 5,5-dioxide]",< 10
16,"COCCCCNC1c2ccccc2N(C)S(=O)(=O)c2cc(Cl)ccc21 (stereo not drawn) [compound 39, 3-Chloro-11-((4-methoxybutyl)amino)-6-methyl-6,11-dihydrodibenzo [c,f][1,2]thiazepine 5,5-dioxide]",< 10
